Reference: US8679513B2, “Cosmetic use of a jasmonic acid derivative for treating the hair and the scalp” (L'Oreal, priority 2009, dated 2014)

Test system: human epidermoid keratinocytes in culture (HaCaT) exposed to UV radiation
Experiment: Evaluation of the antioxidant potential: DCFH-DA test
Type: cell-based
Details: HaCaT keratinocytes pretreated 24 hours; DCFH-DA 20 μM 30 minutes; 2 J/cm^2 UVA; compound used as 30% solution in water/dipropylene glycol (70/30); preliminary tests
Description: Evaluation of the Antioxidant Potential: DCFH-DA Test
The sodium salt of 3-hydroxy-2-pentylcyclopentane-acetic acid is used as a 30% solution in a water/dipropylene glycol mixture (70/30).
In a model of human epidermoid keratinocytes in culture (HaCaT) exposed to UV radiation, the global oxidative stress effect of the said compound after oxidation of a fluorescent probe (DCFH-DA) is measured.
The use of DCFH-DA as a marker of intracellular global oxidative stress is based on its physicochemical properties. It is a nonionic apolar molecule that is capable of diffusing across cell membranes. Once inside the cell, DCFH-DA is hydrolysed by intracellular esterases to a non-fluorescent compound: DCFH or 2,7-dichlorofluorescine. In the presence of activated oxygen species (H2O2; OH°), DCFH is rapidly oxidized to a highly fluorescent compound: DCF or 2,7-dichlorofluorescein.
HaCaT keratinocytes pretreated with the active agents for 24 hours are rinsed with PBS+ and incubated in the presence of DCFH-DA [20 μM] for 30 minutes at 37° C. in the dark.
After removal of the probe, the cells are exposed to 2 J/cm^2 of UVA (WG335 filter) in the presence of 1 ml/well of PBS+. The DCF fluorescence is evaluated immediately after the UVA exposure, by spectrofluorimetry (excitation 480 nm; emission 530 nm).

SMILES: CCCCCC1C(O)CCC1CC(=O)[O-].[Na+] (stereo not shown) [sodium salt of 3-hydroxy-2-pentylcyclopentaneacetic acid]
- antioxidant potential / protection against oxidative stress (DCF fluorescence): antioxidant potential with protection against oxidative stress
